Among the data in the SangsterLogP compilation are logP and logD values, retold here.

Assay in data set [1]: not given
The source holds these as a separate data set.

Assay in data set [2]: not given
The source holds these as a separate data set.

Assay in data set [3]: not given
This is another data set of the same source.

Assay in data set [4]: not given
The source holds these as a separate data set.

The nature of data set [5]: method code SF-GLC, from DOI: 10.1021/je970020p.
Data set [6] in a line: method code SF, from DOI: 10.1177/00220345800590120501, PMID: 6941993.
Data set [7] is described as follows: method code SF, from DOI: 10.1002/etc.5620130110.
Data set [8] is described as follows: from Wadhwa, L.; Chandiran, S.; Sharma, P. (2004). Alkyl esters of 6-methoxy-2-naphthylacetic acid as potential prodrugs - Synthesis, physicochemical properties, chemical stability and enzymatic …. As to conditions: pH 7.4.
Data set [9] can be described thus: method code SF-AS, from Kosanovic, D.; Dumanovic, D.; Jovanovic, J. (1988). Solubility in octanol And the octanol-water partition coefficients of some 4(5)- and 5-nitroimidazoles. 53(10)559-563.
The nature of data set [10]: method code SF-RI, from Korenman, M.; Dobromyslova, M. (1975). Distribution of cellosolves between organic solvents and water. Zh. Prikl. Khim., 48(12)2791-2794.
Assay in data set [11]: not given
The source holds these as a separate data set.

The nature of data set [12]: method code SF-AS, from DOI: 10.1016/0891-5849(94)00112-w, PMID: 7744299. As to conditions: pH 7.5.
Assay in data set [13]: not given
The source holds these as a separate data set.

Data set [14] can be described thus: method code SF, from DOI: 10.1016/0014-2999(70)90221-9, PMID: 5440297. The settings on record: pH 7.4.
Data set [15] can be described thus: method code SF-HPLC, from DOI: 10.1016/j.nucmedbio.2010.03.011, PMID: 20610161. The settings on record: pH 7.4.
Data set [16] is described as follows: method code SF-TN, from DOI: 10.1085/jgp.71.1.93, PMID: 621494.
Data set [17] in a line: method code SF-AS, from DOI: 10.1021/jm00197a006, PMID: 533877.
Data set [18] in a line: method code SF-AS, from DOI: 10.1021/jm00291a017, PMID: 5140011.
Assay in data set [19]: not given
The source holds these as a separate data set.

A short description of data set [20]: method code SF-HPLC, from DOI: 10.1016/0378-5173(89)90133-6. The settings on record: pH 7.4.
Data set [21] can be described thus: method code SF-HPLC, from DOI: 10.1016/j.bmcl.2004.01.062, PMID: 15026043. As to conditions: pH 5.5.
The nature of data set [22]: method code SF-AS, from DOI: 10.1081/jlc-120022394.
Data set [23] in a line: method code SF, from DOI: 10.1021/jm030399c, PMID: 14711317. As to conditions: pH 7.4.
The nature of data set [24]: method code SF-AS, from DOI: 10.1002/jps.2600671008, PMID: 702280. The settings on record: pH 7.0.
Data set [25] can be described thus: method code SF-GLC, from DOI: 10.1021/ac00241a023.
Assay in data set [26]: not given
This is another data set of the same source.

A short description of data set [27]: method code G-HPLC, from He, Y.; Zhao, Y.; Wang, L.; An, F.; Mo, H.; Yang, K.; Liu, Y.; Yu, G.; Xu, X. (1994). Determination of n-octanol/water partition coefficient of organic compound. Huanjing Huaxue, 13(3)195-197.
Data set [28] is described as follows: method code SF-AS, from DOI: 10.2116/analsci.8.761. The settings on record: pH 6.0.
Assay in data set [29]: not given
The source holds these as a separate data set.

Assay in data set [30]: not given
The source holds these as a separate data set.

Data set [31] is described as follows: method code SF-AS, from PMID: 7149911. The settings on record: pH 8.9.
Assay in data set [32]: not given
The source holds these as a separate data set.

The nature of data set [33]: method code SF-HPLC, from DOI: 10.1016/j.ejps.2013.10.002, PMID: 24161609.
Assay in data set [34]: not given
The source holds these as a separate data set.

Assay in data set [35]: not given
The source holds these as a separate data set.

Assay in data set [36]: not given
The source holds these as a separate data set.

Data set [37] can be described thus: method code SF-AS, from Suikov, S.Yu.; Bondarenko, A.V.; Bogza, S.L.; Lutsyk, A.I. (2003). Distribution of 5-aminopyrazoles and 5-aminoisoxazoles in the octanol-water system. Ukr. Khim. Zh. (Russ. Ed.), 69(5/6)31-34.
Data set [38] is described as follows: method code SF-GR, from DOI: 10.1021/jm00219a024, PMID: 926124.
Assay in data set [39]: not given
This is another data set of the same source.

The nature of data set [40]: method code SF-HPLC, from DOI: 10.1016/s0045-6535(01)00105-9, PMID: 11695583.
For data set [41] the following is noted: pH 7.4.
Assay in data set [42]: not given
This is another data set of the same source.

A short description of data set [43]: method code SF-AS, from DOI: 10.1016/0045-6535(84)90003-1.
Assay in data set [44]: not given
The source holds these as a separate data set.

Data set [45] is described as follows: method code SF, from DOI: 10.1016/0041-008x(67)90079-8.
Data set [46] can be described thus: method code SF, from DOI: 10.1016/s0960-894x(00)80094-3. As to conditions: pH 7.4.
Data set [47] is described as follows: method code SF-TN, from Korenman, I M.; Gurevich, N.; Kulagina, G. (1973). Extraction of certain n-alkylamines from aqueous solutions. Zh. Prikl. Khim., 46(3)726-728.
Data set [48] in a line: method code SF-GLC, from DOI: 10.1021/jo01265a071.

As for `CCCC[N+](=O)[O-]`, the logP is 1.38.
In [1], `Clc1ccc(Cl)cc1` gave a logP of 3.48.
For the compound `O=C(O)P(=O)(O)O`, the logP in data set [2] was -2.
Take `OCCC(F)(F)C(F)(F)C(F)(F)C(F)(F)F`: the logP in data set [3] was found to be 3.28.
As to `CCCCCO`, in [4], the logP was found to be 1.41.
Take `Clc1c(Cl)c(Cl)c(Cl)c(Cl)c1Cl`: in data set [5], the logP stood at 5.74.
In the case of `C=COC(C)=O`, the logP in data set [6] was 0.6.
In turn, `COP(=O)(OC)C(O)C(Cl)(Cl)Cl` (configuration not stated) had a logP in data set [7] of 1.7.
In the case of `COC(=O)Cc1ccc2cc(OC)ccc2c1`, in data set [8], the logD was 3.04.
`Cc1ncc([N+](=O)[O-])n1C` had a logP in data set [9] of 0.31.
The compound `CC(C)OCCO` registered a logP in [10] of 0.05.
Regarding `O=[N+]([O-])c1cncnc1`, in [11], the logP is -0.05.
In the case of `CC(C)(C)N=O`, in data set [12], the logD came to 0.91.
On to `Oc1nc(Cl)c(Cl)cc1Cl`, for which the logP in data set [13] worked out at 2.27.
`O=C[C@H](O)[C@H](O)[C@H](O)CO` showed a logD in [14] of -2.32.
In data set [15], `O=[N+]([O-])c1ncn(CC(O)CF)n1` (configuration not stated) showed a logD of -0.46.
Consider `CCCC(O)C(=O)O` (configuration not stated), for which the logP in data set [16] is 0.45.
`CC(=O)C=NO`: the logP in [17] is 0.39.
As for `S=C1CCCN1`, the logP in data set [18] is -0.05.
For the compound `Oc1c(Cl)c(Cl)c(Cl)c(Cl)c1Cl`, the logP in data set [19] worked out at 4.79.
In data set [20], `OC(Cn1ccnc1)c1ccc(CCc2ccccc2)cc1` (configuration not stated) had a logD of 3.4.
With `CN(C)C(=O)Oc1ccc(CC(NC(=O)C2N(S(=O)(=O)c3cnn(C)c3)CSC2(C)C)C(=O)OCCOc2ccccc2)cc1` (configuration not stated), the logD in [21] is 3.27.
Turning to `CCOC(=O)C(=Cc1ccc(OC)c(OC)c1)NC=O`, the logP in [22] is 1.97.
For the compound `O=C(NCCOCCNc1n[n+]([O-])c2ccccc2[n+]1[O-])c1cccc2cc3ccccc3nc12`, in data set [23], the logD was determined as 1.84.
`Clc1ccccn1`: in data set [24], the logD was found to be 1.34.
`Brc1cc(Br)c(Br)cc1Br` had a logP in [25] of 5.13.
Compound `CCOC(=O)C(=Cc1ccc(OC)cc1)NC=O` returned a logP in data set [22] of 2.22.
`CNC(N)=S` came in with a logP in data set [26] of -0.68.
In turn, `Clc1ccccc1Cl` gave a logP in data set [27] of 3.34.
In turn, `OCc1cc(Br)cc(Br)c1O` yielded a logD in data set [28] of 2.72.
Consider `O=[N+]([O-])/C=C1\NCCCS1`, for which the logP in data set [29] is -0.4.
As for `Cc1nnn[nH]1`, the logP in data set [30] is -0.49.
In data set [31], `CN(N=O)C(N)=O` displayed a logD of -0.4.
For the compound `Oc1cc(Br)ccc1Br`, in [32], the logP stood at 3.22.
Turning to `O=C(O)/C=C/C(=O)O`, the logP in [33] is -0.04.
Compound `Brc1ccc(Br)cc1` registered a logP in [34] of 3.89.
Consider `Oc1c(Cl)cc(Cl)c(Cl)c1O`, for which the logP in [35] came out at 3.6.
`Oc1c(Br)cc(Br)cc1Br` returned a logP in data set [36] of 4.24.
On to `Cc1c(-c2ccccc2)n[nH]c1N`, for which the logP in data set [37] was found to be 1.65.
`CCCNC(=O)NO`: the logP in [38] was -0.22.
In data set [39], `CC(Cl)Cl` had a logP of 1.82.
In data set [40], `Brc1ccc(Br)c(Br)c1Br` gave a logP of 5.
As for `CCCCC(OC(Cc1ccccc1)C(=O)N1CCC(OCOC)CC1)C(=O)NC(CC1CCCCC1)[C@@H](O)CC(C(=O)NCCCNC(C)=O)C(C)C` (some centres not stated), in [41], the logD is 4.3.
`Oc1cc(Cl)c(Cl)cc1Cl` registered a logP in data set [42] of 3.63.
As to `Oc1cc(Cl)cc(Cl)c1Cl`, in data set [43], the logP amounted to 3.84.
Turning to `Oc1cccc(Cl)c1Cl`, in data set [44], the logP was 2.98.
As for `CCCCOC(=O)Cc1ccc2cc(OC)ccc2c1`, the logD in data set [8] turned out to be 4.75.
Take `Clc1nc(Cl)c(Cl)c(Cl)c1Cl`: in [45], the logP was 3.53.
Compound `C[C@@H]1CN(O)C(=O)[C@@H]1N` showed a logD in data set [46] of -3.42.
As for `CCCN`, the logP in data set [47] is 0.28.
Turning to `Cc1noc(N)c1-c1ccccc1`, the logP in data set [37] turned out to be 2.02.
The compound `CCCCCl` showed a logP in [48] of 2.39.

As usually defined, the logD is the decadic logarithm of the distribution of all forms, ionised or not, between an organic phase and buffer at a given pH.
